System: haploid sorghum plants
Assay: Chromosome doubling of haploid sorghum plants by root treatment with colchicine
Assay type: in vivo
Settings: colchicine 0.05%, 5 hours, roots
Source text: Plants from diploid sorghum genotypes, “PHI01”, “PHI02”, “PHI03”, “PHI04”, “PHI05”, “PHI06”, “PHI07”, “PHI08”, “PHI09”, “PHI10”, “PHI11”, “PHI12”, “PHI13”, “PHI14”, “PHI15”, “PHI16”, “PHI17”, “PHI18”, “PHI19”, and “PHI20” were pollinated with pollen obtained from pearl millet line PHI01A, as described in Example 2. Immature haploid embryos were isolated, as described in Example 2, 10-20 days after pollination and embryo sizes ranged from 0.1-3 mm long. These haploid embryos were germinated on a medium (see Table 4) in the dark. The germinated haploid embryos were then transferred to fresh media for an additional 7-10 days at 21°−26° C. in the dark until germinated plantlets formed. The germinated plantlets were then transferred to a light culture room and grown at 21°−26° C. for another 2-3 weeks until healthy plantlets having good roots developed. These plantlets were then potted into soil and grown in a regular greenhouse for 5-6 weeks. Upon healthy plant establishment, the roots were treated with a chromosome doubling agent, colchicine, for 5 hours in the dark. Additional chromosome doubling agents for example, pronamide, dithipyr, oryzalin, AMP, and trifluralin, or any of the other chromosome doubling agents referenced in Table 1 can also be used. After treatment with the doubling agent, the roots were then thoroughly rinsed with running water for 30 min, to remove the residual doubling agent and then potted in soil and grown to maturity.

[1] = PHI01/2018, 15 haploid plants treated
[2] = PHI02/2018, 63 haploid plants treated
[3] = PHI02/2019, 17 haploid plants treated
[4] = PHI02/2020, 13 haploid plants treated
[5] = PHI03/2018, 20 haploid plants treated
[6] = PHI04/2018, 9 haploid plants treated
[7] = PHI05/2018, 3 haploid plants treated
[8] = PHI05/2019, 4 haploid plants treated
[9] = PHI05/2020, 1 haploid plant treated
[10] = PHI06/2018, 24 haploid plants treated
[11] = PHI07/2018, 24 haploid plants treated
[12] = PHI08/2018, 2 haploid plants treated
[13] = PHI09/2018, 8 haploid plants treated
[14] = PHI09/2019, 14 haploid plants treated
[15] = PHI09/2020, 10 haploid plants treated
[16] = PHI10/2018, 38 haploid plants treated
[17] = PHI10/2019, 36 haploid plants treated
[18] = PHI10/2020, 25 haploid plants treated
[19] = PHI11/2019, 2 haploid plants treated
[20] = PHI11/2020, 2 haploid plants treated
[21] = PHI12/2019, 8 haploid plants treated
[22] = PHI12/2020, 1 haploid plant treated
[23] = PHI13/2019, 30 haploid plants treated
[24] = PHI13/2020, 18 haploid plants treated
[25] = PHI14/2019, 53 haploid plants treated
[26] = PHI14/2020, 14 haploid plants treated
[27] = PHI15/2019, 15 haploid plants treated
[28] = PHI15/2020, 5 haploid plants treated
[29] = PHI16/2019, 27 haploid plants treated
[30] = PHI17/2020, 4 haploid plants treated
[31] = PHI18/2020, 6 haploid plants treated
[32] = PHI19/2020, 23 haploid plants treated
[33] = PHI20/2020, 9 haploid plants treated
[34] = Sum of all genotypes/years, 543 haploid plants treated

For `COc1cc2c(c(OC)c1OC)-c1ccc(OC)c(=O)cc1[C@@H](NC(C)=O)CC2` [Colchicine, (S)-N-(5,6,7,9-tetrahydro-1,2,3,10-tetramethoxy-9-oxobenzo (a)heptalen-7-yl) acetamide], which “DH Success rate (%)” value [1] is on record?
Its value is 100%.

What about the “Number of Fully Fertile DH plants” value [1] of the same molecule?
The value was 15.

What about the “Number of plants survived after treatment” value (“Number of plants survived” for short) [1] of the same molecule?
Its value is 15.

What about the “DH Success rate (%)” value [2] of the same molecule?
Its value is 98%.

What about the “Number of Fully Fertile DH plants” value [2] of the same molecule?
The value was 62.

What about the “Number of plants survived” value [2] of the same molecule?
Its value is 62.

What about the “DH Success rate (%)” value [3] of the same molecule?
The value was 100%.

And the “Number of Fully Fertile DH plants” value [3]?
The value was 17.

What about the “Number of plants survived” value [3] of the same molecule?
The value was 17.

And the “DH Success rate (%)” value [4]?
The value was 100%.

And the “Number of Fully Fertile DH plants” value [4]?
The value was 13.

And the “Number of plants survived” value [4]?
Its value is 13.

What about the “DH Success rate (%)” value [5] of the same molecule?
The value was 100%.

What about the “Number of Fully Fertile DH plants” value [5] of the same molecule?
The value was 20.

What about the “Number of plants survived” value [5] of the same molecule?
Its value is 20.

What about the “DH Success rate (%)” value [6] of the same molecule?
The value was 100%.

And the “Number of Fully Fertile DH plants” value [6]?
Its value is 9.

And the “Number of plants survived” value [6]?
Its value is 9.

What about the “DH Success rate (%)” value [7] of the same molecule?
Its value is 100%.

What about the “Number of Fully Fertile DH plants” value [7] of the same molecule?
The value was 3.

And the “Number of plants survived” value [7]?
The value was 3.

What about the “DH Success rate (%)” value [8] of the same molecule?
Its value is 100%.

And the “Number of Fully Fertile DH plants” value [8]?
Its value is 4.

What about the “Number of plants survived” value [8] of the same molecule?
The value was 4.

And the “DH Success rate (%)” value [9]?
Its value is 100%.

What about the “Number of Fully Fertile DH plants” value [9] of the same molecule?
Its value is 1.

And the “Number of plants survived” value [9]?
The value was 1.

And the “DH Success rate (%)” value [10]?
The value was 100%.

And the “Number of Fully Fertile DH plants” value [10]?
The value was 24.

What about the “Number of plants survived” value [10] of the same molecule?
The value was 24.

What about the “DH Success rate (%)” value [11] of the same molecule?
Its value is 96%.

And the “Number of Fully Fertile DH plants” value [11]?
Its value is 23.

What about the “Number of plants survived” value [11] of the same molecule?
Its value is 23.

What about the “DH Success rate (%)” value [12] of the same molecule?
Its value is 100%.

And the “Number of Fully Fertile DH plants” value [12]?
The value was 2.

And the “Number of plants survived” value [12]?
The value was 2.

And the “DH Success rate (%)” value [13]?
The value was 100%.

What about the “Number of Fully Fertile DH plants” value [13] of the same molecule?
The value was 8.

What about the “Number of plants survived” value [13] of the same molecule?
Its value is 8.

What about the “DH Success rate (%)” value [14] of the same molecule?
Its value is 93%.

And the “Number of Fully Fertile DH plants” value [14]?
The value was 13.

And the “Number of plants survived” value [14]?
The value was 14.

And the “DH Success rate (%)” value [15]?
The value was 100%.

And the “Number of Fully Fertile DH plants” value [15]?
Its value is 10.

What about the “Number of plants survived” value [15] of the same molecule?
The value was 10.

What about the “DH Success rate (%)” value [16] of the same molecule?
The value was 100%.

What about the “Number of Fully Fertile DH plants” value [16] of the same molecule?
Its value is 38.

What about the “Number of plants survived” value [16] of the same molecule?
Its value is 38.

What about the “DH Success rate (%)” value [17] of the same molecule?
Its value is 97%.

What about the “Number of Fully Fertile DH plants” value [17] of the same molecule?
Its value is 35.

What about the “Number of plants survived” value [17] of the same molecule?
The value was 35.

What about the “DH Success rate (%)” value [18] of the same molecule?
The value was 100%.

What about the “Number of Fully Fertile DH plants” value [18] of the same molecule?
Its value is 25.

And the “Number of plants survived” value [18]?
Its value is 25.

And the “DH Success rate (%)” value [19]?
Its value is 100%.

What about the “Number of Fully Fertile DH plants” value [19] of the same molecule?
Its value is 2.

And the “Number of plants survived” value [19]?
Its value is 2.

And the “DH Success rate (%)” value [20]?
Its value is 100%.

What about the “Number of Fully Fertile DH plants” value [20] of the same molecule?
The value was 2.

And the “Number of plants survived” value [20]?
The value was 2.

And the “DH Success rate (%)” value [21]?
The value was 100%.

And the “Number of Fully Fertile DH plants” value [21]?
The value was 8.

And the “Number of plants survived” value [21]?
The value was 8.

And the “DH Success rate (%)” value [22]?
The value was 100%.

And the “Number of Fully Fertile DH plants” value [22]?
Its value is 1.

And the “Number of plants survived” value [22]?
Its value is 1.

And the “DH Success rate (%)” value [23]?
The value was 100%.

What about the “Number of Fully Fertile DH plants” value [23] of the same molecule?
Its value is 30.

What about the “Number of plants survived” value [23] of the same molecule?
The value was 30.

What about the “DH Success rate (%)” value [24] of the same molecule?
The value was 100%.

What about the “Number of Fully Fertile DH plants” value [24] of the same molecule?
The value was 18.

What about the “Number of plants survived” value [24] of the same molecule?
Its value is 18.

What about the “DH Success rate (%)” value [25] of the same molecule?
Its value is 98%.

What about the “Number of Fully Fertile DH plants” value [25] of the same molecule?
The value was 52.

And the “Number of plants survived” value [25]?
Its value is 52.

And the “DH Success rate (%)” value [26]?
The value was 93%.

And the “Number of Fully Fertile DH plants” value [26]?
Its value is 13.

And the “Number of plants survived” value [26]?
The value was 13.

What about the “DH Success rate (%)” value [27] of the same molecule?
Its value is 100%.

What about the “Number of Fully Fertile DH plants” value [27] of the same molecule?
Its value is 15.

What about the “Number of plants survived” value [27] of the same molecule?
Its value is 15.

And the “DH Success rate (%)” value [28]?
Its value is 100%.

And the “Number of Fully Fertile DH plants” value [28]?
The value was 5.

What about the “Number of plants survived” value [28] of the same molecule?
The value was 5.

And the “DH Success rate (%)” value [29]?
Its value is 100%.

What about the “Number of Fully Fertile DH plants” value [29] of the same molecule?
The value was 27.

What about the “Number of plants survived” value [29] of the same molecule?
The value was 27.

And the “DH Success rate (%)” value [30]?
Its value is 100%.

What about the “Number of Fully Fertile DH plants” value [30] of the same molecule?
The value was 4.

And the “Number of plants survived” value [30]?
The value was 4.

What about the “DH Success rate (%)” value [31] of the same molecule?
The value was 100%.

What about the “Number of Fully Fertile DH plants” value [31] of the same molecule?
Its value is 6.

And the “Number of plants survived” value [31]?
Its value is 6.

And the “DH Success rate (%)” value [32]?
Its value is 100%.

And the “Number of Fully Fertile DH plants” value [32]?
The value was 23.

What about the “Number of plants survived” value [32] of the same molecule?
The value was 23.

And the “DH Success rate (%)” value [33]?
Its value is 100%.

What about the “Number of Fully Fertile DH plants” value [33] of the same molecule?
Its value is 9.

And the “Number of plants survived” value [33]?
Its value is 9.

And the “DH Success rate (%)” value [34]?
The value was 99%.

And the “Number of Fully Fertile DH plants” value [34]?
The value was 537.

What about the “Number of plants survived” value [34] of the same molecule?
Its value is 538.

Reference: patent publication US20230107598A1, “SORGHUM DOUBLED HAPLOID […]” (PIONEER HI-BRED INTERNATIONAL, INC., priority 2020, published 2023)
